Data as given in PMC10899790, “A bromodomain-independent mechanism of gene regulation by the BET inhibitor JQ1: direct activation of nuclear receptor PXR” (Nucleic Acids Research, 2023).
“Also recorded” adds a separate entry of the source.

Tests used:
PXR LBD = target: T1, PXR LBD (Homo sapiens, UniProt O75469); test: TR-FRET PXR LBD SRC-1 recruitment assay; type: biochemical; conditions: percent relative to 10 μM T0901317 and DMSO
T1 construct: GST-PXR LBD protein (cat. # PV4841) were purchased from Thermo Fisher Scientific; purchased Thermo Fisher Scientific PV4841
T1 sequence (O75469 146-433 limits assumed): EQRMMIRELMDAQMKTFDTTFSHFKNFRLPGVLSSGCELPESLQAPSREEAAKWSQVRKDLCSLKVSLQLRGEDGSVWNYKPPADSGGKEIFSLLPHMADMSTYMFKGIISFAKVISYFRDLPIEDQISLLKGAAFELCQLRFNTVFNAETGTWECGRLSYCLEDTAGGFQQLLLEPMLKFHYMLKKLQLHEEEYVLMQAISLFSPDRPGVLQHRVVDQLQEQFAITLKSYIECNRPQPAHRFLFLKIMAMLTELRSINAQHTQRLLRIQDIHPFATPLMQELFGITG
Method: The TR-FRET PXR LBD SRC-1 recruitment assay measures PXR LBD interaction with a fluorescently labeled SRC-1 peptide (Supplementary Figure S1) and was performed as previously described with minor modifications ([23]). […] FAM-SRC-1 peptide solution (15 μl/well, 133.3 nM in assay buffer) was dispensed into 384-well black low-volume assay plates. An Echo 650 Acoustic Liquid Handler then dispensed 60 nl/well of compound stocks or DMSO. […] The plates were shaken at 900 rpm (80 × g) on an IKA MTS 2/4 digital microtiter shaker for 1 min then centrifuged at 1000 rpm (201 × g) for 30 s in an Eppendorf 5810 centrifuge equipped with an A-4-62 swing-bucket rotor. The plates were protected from light exposure and incubated for 1 h at room temperature (RT). After incubation, the TR-FRET signal from each well was collected with a PHERAstar FS Microplate Reader (BMG Labtech). The measured relative fluorescence units (RFU) were normalized for each well using equation (2),

mouse PXR (mPXR) = target: T2, mouse PXR (mPXR) (Mus musculus, UniProt O54915); conditions: mPXR-transfected HepG2, 24 h; PCN as 100% control
T2 sequence (O54915 1-431): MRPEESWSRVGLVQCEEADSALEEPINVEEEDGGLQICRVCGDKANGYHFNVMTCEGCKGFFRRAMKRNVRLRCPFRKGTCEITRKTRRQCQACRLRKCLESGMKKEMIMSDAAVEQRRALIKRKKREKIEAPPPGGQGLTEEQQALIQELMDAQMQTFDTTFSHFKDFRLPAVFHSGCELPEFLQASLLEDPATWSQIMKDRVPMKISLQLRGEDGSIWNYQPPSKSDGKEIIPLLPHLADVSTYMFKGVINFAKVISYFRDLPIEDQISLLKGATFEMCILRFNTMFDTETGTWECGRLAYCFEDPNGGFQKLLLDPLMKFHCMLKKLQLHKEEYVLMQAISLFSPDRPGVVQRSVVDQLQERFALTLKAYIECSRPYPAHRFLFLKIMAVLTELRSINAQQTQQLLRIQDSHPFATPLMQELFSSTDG
Method: Assays were performed similarly as previously described with minor modifications ([30–32]). HepG2 cells (7.5 × 10^5/well) were plated in six-well tissue culture-treated plates. The following day, cells were co-transfected with pGL3-CYP3A4-luc (2 μg/well), pRL-CMV (200 ng/well) and 100 ng/well of either empty vector (pcDNA3), pcDNA3-FLAG-PXR, pCMV6-mPXR or pGL4.53-PGK-PXR using Lipofectamine 3000 (Thermo Fisher Scientific). Twenty-four hours after transfection, cells were trypsinized and suspended in phenol red-free DMEM (Thermo Fisher Scientific) supplemented with 5% charcoal/dextran-treated FBS (HyClone), and 1 × 10^4 cells/well in 25 μl media were added to white 384-well plates. […] After 24 h, the Dual-Glo Luciferase Assay System (Promega) and EnVision microplate reader (PerkinElmer) were used to measure firefly and Renilla luciferase activities. CMV-driven Renilla luciferase was used as an indicator of general transcriptional modulation by the test compounds and is plotted as fold change (FC) relative to DMSO controls. Assays utilizing pGL4.54[luc2/TK], pGL4.53[luc2/PGK], or pGL4.13[luc2/SV40] were similarly performed and normalized. For the PXR-responsive CYP3A4-luciferase reporter, the measured relative light units (RLU) were normalized for each well using equation (1),
RLUT0901317 represents the measured RLU from wells containing 1 μM T0901317. […]

## Cc1sc2c(c1C)C(c1ccc(Cl)cc1)=N[C@@H](CC(=O)OC(C)(C)C)c1nnc(C)n1-2 [JQ1, (+)-JQ1]
PXR LBD
  recruitment of SRC-1 peptide to purified PXR LBD: induced SRC-1 recruitment; also recorded: JQ1 > birabresib > CPI-203
Mouse PXR (mPXR)
  activation of CYP3A4-luciferase reporter in the presence of mPXR: did not activate the CYP3A4-luciferase reporter in the presence of mPXR
